Assay results reported in patent US20210290784A1, “POSITRON EMISSION TOMOGRAPHY (PET) RADIOTRACERS FOR IMAGING MACROPHAGE COLONY-STIMULATING FACTOR 1 RECEPTOR (CSF1R) IN NEUROINFLAMMATION” (The Johns Hopkins University, priority 2018, published 2021).

Tests used:
[1] = target: T1, CSF1R (Mus musculus, UniProt P09581); assay: Brain uptake in microglia-depleted vs control mice; type: in vivo; parameters: from tissue; host or cells: brain of living CD-1, C57BL/6J, transgenic APP (AD model), EAE and CSF1R KO mice; conditions: whole brain % SUV, 45 min, PLX3397 chow 290 mg/kg for 3 weeks
T1 sequence (P09581 20-977): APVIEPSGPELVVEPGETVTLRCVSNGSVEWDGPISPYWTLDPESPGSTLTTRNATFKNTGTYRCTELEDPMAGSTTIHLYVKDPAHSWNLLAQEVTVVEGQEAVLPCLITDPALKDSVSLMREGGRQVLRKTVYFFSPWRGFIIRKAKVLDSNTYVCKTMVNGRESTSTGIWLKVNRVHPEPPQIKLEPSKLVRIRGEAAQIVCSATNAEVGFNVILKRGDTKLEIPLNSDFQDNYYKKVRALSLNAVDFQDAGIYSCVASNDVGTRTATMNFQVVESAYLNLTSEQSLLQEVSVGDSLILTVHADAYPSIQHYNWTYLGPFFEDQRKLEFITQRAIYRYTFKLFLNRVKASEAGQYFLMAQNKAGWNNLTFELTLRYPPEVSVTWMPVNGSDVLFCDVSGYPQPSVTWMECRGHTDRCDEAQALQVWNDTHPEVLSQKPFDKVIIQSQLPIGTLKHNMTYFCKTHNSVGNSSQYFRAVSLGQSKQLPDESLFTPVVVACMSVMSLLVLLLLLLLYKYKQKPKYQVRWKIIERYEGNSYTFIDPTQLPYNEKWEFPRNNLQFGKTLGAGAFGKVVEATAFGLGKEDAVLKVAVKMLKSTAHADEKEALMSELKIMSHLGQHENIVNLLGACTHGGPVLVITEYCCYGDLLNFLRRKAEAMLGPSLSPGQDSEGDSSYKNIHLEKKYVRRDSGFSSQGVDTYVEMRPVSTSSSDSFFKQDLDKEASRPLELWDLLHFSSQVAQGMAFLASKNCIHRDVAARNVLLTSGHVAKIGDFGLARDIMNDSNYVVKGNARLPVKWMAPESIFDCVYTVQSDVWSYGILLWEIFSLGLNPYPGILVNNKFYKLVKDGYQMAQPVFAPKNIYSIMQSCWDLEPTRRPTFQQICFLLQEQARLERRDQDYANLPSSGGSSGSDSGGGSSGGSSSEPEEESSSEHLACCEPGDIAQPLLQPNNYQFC
Protocol: Male C57BL/6J mice (22-24 g) from Charles River Laboratories were purchased. […] The control C57BL/6J mice (5 animals) were fed with standard mouse chow for 3 weeks. On the last day of treatment, all animals were sacrificed by cervical dislocation at 45 min following injection of 5.0 MBq (0.135 mCi) [^11C]CPPC [specific radioactivity=475 GBq/μmol (12.8 Ci/μmol)] in 0.2 mL saline into a lateral tail vein. […] The outcome variables were calculated as % SUV.

[2] = Whole-body radiation dosimetry in mice, extrapolated to human; type: in vivo
Protocol: Male CD-1 mice were injected with [^11C]CPPC as described above for baseline studies and were euthanized at 10, 30, 45, 60, and 90 min after treatment. The various organs were quickly removed and percentage injected dose (% ID) per organ was determined. The human radiation dosimetry of [^11C]CPPC was extrapolated from the mouse biodistribution data using SAAM II (Simulation Analysis and Modeling II) and OLINDA/EXM software. The data were analyzed commercially (RADAR, Inc).
Radiation dosimetry for [^11C]CPPC was studied in fifteen male CD-1 mice (23-27 g) following our published procedure (Stabin M G, et al. (2005)). A solution of [^11C]CPPC in 0.2 ml of saline (7.4 MBq or 0.2 mCi) was injected as a bolus into the lateral tail vein, and groups of mice (n=3) were euthanized at 10, 30, 45, 60, and 90 min after the radiotracer injection. The lungs, heart, kidneys, liver, spleen, intestine, stomach, and brain were quickly removed and put on ice. One femur and samples of thigh muscle, bone marrow and blood were also collected. The organs were weighed, and the tissue radioactivity was measured with an automated gamma counter (LKB Wallac 1282 CompuGamma CS Universal Gamma Counter). The percent injected dose per organ (% ID/organ) was calculated by comparison with samples of a standard dilution of the initial dose. All measurements were corrected for decay. Resultant values of % ID/organ were fit using the SAAM II software (Foster D M (1998)). Time integrals of activity (Stabin M G and Siegel J A (2003)) were entered into the OLINDA/EXM software (Stabin M G, et al. (2005)), using the adult male model. […] The number of disintegrations in the remainder of body was assumed to be equal to 100% of the activity administered integrated to total decay of ^11C, minus the disintegrations in other body organs.

[3] = two exponential fit of % ID/organ

SMILES: [11CH3]N1CCN(c2ccc(NC(=O)c3ccc(C#N)o3)c(N3CCCCC3)c2)CC1 [[^11C]CPPC, 5-cyano-N-(4-(4-[^11C]methylpiperazin-1-yl)-2-(piperidin-1-yl)phenyl)furan-2-carboxamide]
- reduction in radiotracer uptake in microglia-depleted mouse brain vs controls [1]: 14%
- Activity observed in the intestines ([2]; CD-1 mice): ~35%
- radiation burden to a human subject vs FDA limit ([2]; proposed dose of 740 MBq (20 mCi)): < 5 Rem
- fitted metabolic model, Brain, first component % [2, 3]: 3.83%
- fitted metabolic model, Brain, first component T-bio [2, 3]: 0.302 h
- fitted metabolic model, Brain, second component % [2, 3]: 0.38%
- fitted metabolic model, Brain, second component T-bio [2, 3]: ∞
- fitted metabolic model, Heart, first component % [2, 3]: 1.00%
- fitted metabolic model, Heart, first component T-bio [2, 3]: 0.272 h
- fitted metabolic model, Heart, second component % [2, 3]: 0.14%
- fitted metabolic model, Heart, second component T-bio [2, 3]: ∞
- fitted metabolic model, Kidneys, first component % [2, 3]: 8.32%
- fitted metabolic model, Kidneys, first component T-bio [2, 3]: 0.297 h
- fitted metabolic model, Kidneys, second component % [2, 3]: 1.52%
- fitted metabolic model, Kidneys, second component T-bio [2, 3]: ∞
- fitted metabolic model, Liver, first component % [2, 3]: 97.6%
- fitted metabolic model, Liver, first component T-bio [2, 3]: 0.764 h
- fitted metabolic model, Liver, second component % [2, 3]: −100%
- fitted metabolic model, Liver, second component T-bio [2, 3]: 0.335 h
- fitted metabolic model, Lungs, first component % [2, 3]: 8.27%
- fitted metabolic model, Lungs, first component T-bio [2, 3]: 0.159 h
- fitted metabolic model, Lungs, second component % [2, 3]: 1.53%
- fitted metabolic model, Lungs, second component T-bio [2, 3]: 2.27 h
- fitted metabolic model, Spleen, first component % [2, 3]: 1.43%
- fitted metabolic model, Spleen, first component T-bio [2, 3]: 0.823 h
- fitted metabolic model, Spleen, second component % [2, 3]: −1.24%
- fitted metabolic model, Spleen, second component T-bio [2, 3]: 0.145 h
